Results taken from patent publication US20040147606A1, “Medicinal compositions” (priority 2001, published 2004).

What was measured:
goblet cells = assay: Test for confirming synergetic expectorant effect: number of goblet cells in the air tube after intratracheal LPS; assay type: in vivo, Fischer (F334) rats; conditions: for Number of goblet cells: counted three days after LPS; for expectorant effect (number of goblet cells), result in words: summary of Table 1
Text: Improvement of the expectorant effect by using fudosteine and an antipyretic/analgesic in combination was confirmed by the method described below. Seven 12-week-old male Fischer ([…]) rats for one group were used as test animals. The rats were anesthetized with pentobarbital and their skin was disinfected using the Isodine solution for surgery. The trachea of the rats was exposed by midline incision. The injection needle ([…], Hamilton) attached to a Hamilton injection syringe was inserted from the pharynx to inject lipopolysaccharide (LPS, 10 μg/500 μl) into the air tube. The samples of which the components and dose are shown in Table 1 were dissolved or suspended in a 0.5% CMC-Na solution. The solution or suspension was orally administered to the rats three times in total, specifically, 30 minutes before administering LPS, 24 hours after administering LPS, and 48 hours after administering LPS. Three days after administering LPS, the rats were bled to death by cutting the abdominal aorta under pentobarbital anesthesia. A part of the air tube and bronchial tube was removed and fixed with a 10% neutral buffered formalin solution. The fixed bronchial tube was embedded in paraffin according to a conventional method. The air tube was cut into slices in the cross-section. The slices were stained with alcian blue/PAS (AB/PAS). The AB/PAS stained samples of each air tube were microscopically examined to measure the number of goblet cells according to the reported procedure (Enviromn. Tixicol. Pharmacol., vol. 5, p. 173, 1998).

Wistar rats = assay: Test for confirming synergetic antiinflammatory effect: carrageenan footpad edema; assay type: in vivo; conditions: for Edema ratio (%): four hours after carrageenan; for antiinflammatory effect, result in words: summary of Table 2
Description: Improvement on the antiinflammatory effect by using fudosteine and an antipyretic/analgesic in combination was confirmed by the method described below. Five five-week-old male Wistar rats for one group were used as test animals. The samples of which the components and dose are shown in Table 2 were dissolved or suspended in a 0.5% CMC-Na solution. The solution or suspension was orally administered to the rats once a day in five consecutive days. Two hours after the administration on the last administration day, 0.1 ml of an inflammatory (carrageenan) was hypodermically injected into the right hind footpad of the rats. The limb volume of the rats was measured four hours after injecting the inflammatory. The edema ratio was calculated based on the limb volume before injecting the inflammatory. The rats were coated with a licking prevention hood, followed by measuring the right hind limb volume using a plethysmometer (manufactured by Ugo Basile).

[1] = 100 mg/kg orally once a day for five days

| Compound | Number of goblet cells (goblet cells; 100 mg/kg orally, three times) | Number of goblet cells (goblet cells; 200 mg/kg orally, three times) | expectorant effect (number of goblet cells), result in words (goblet cells) | Edema ratio (%) (Wistar rats; [1]) | Edema ratio (%) (Wistar rats; 200 mg/kg orally once a day for five days) | antiinflammatory effect, result in words (Wistar rats) | Number of goblet cells (goblet cells; 30 mg/kg orally, three times (30 min before, 24 h and 48 h after LPS)) | Number of goblet cells (goblet cells; 50 mg/kg orally, three times) | Edema ratio (%) (Wistar rats; 50 mg/kg orally once a day for five days) |
| --- | --- | --- | --- | --- | --- | --- | --- | --- | --- |
| CC(=O)Nc1ccc(O)cc1 [Acetaminophen, acetaminophen] | 125.7 ± 2.4 | 122.9 ± 1.7 | did not exhibit an expectorant effect | 70.6 ± 0.68 % | 60.6 ± 0.88 ^b) % | dose-dependent antiinflammatory effect |  |  |  |
| N[C@@H](CSCCCO)C(=O)O [Fudosteine, S-(3-hydroxypropyl)-L-cysteine] |  |  | exhibited an expectorant effect |  |  |  | 75.7 ± 1.3 |  |  |
| CC(C)Cc1ccc(C(C)C(=O)O)cc1 (centres unmarked) [Ibuprofen, ibuprofen] | 124.3 ± 2.0 |  | did not exhibit an expectorant effect | 60.6 ± 0.79 ^a) % |  | dose-dependent antiinflammatory effect |  | 124.9 ± 1.8 | 70.6 ± 0.89 % |
